Holding throughout (test): inhibition of tumour cell growth, NCI panel, 48 h
For assay [1], the system named is NCI-H522 lung.
In assay [2] the test system is MALME-3M melanoma.
In assay [3] the test system is MOLT-4 leukemia.
The subject of assay [4] is KM12 colon.
In assay [5] the test system is LOX IMVI melanoma.
For assay [6], the system named is ACHN renal.
The subject of assay [7] is UACC-62 melanoma.
The subject of assay [8] is OVCAR-4 ovarian.
Assay [9] relates to NCI/ADR-RES ovarian.
Assay [10] has as its system OVCAR-8 ovarian.
Assay [11] has as its system NCI-H23 lung.
Assay [12] relates to PC-3 prostate.
The test system of assay [13] is MDA-MB-435.
Assay [14] has as its system HOP-62 NSCLC.
In assay [15] the test system is MCF7 breast.
The test system of assay [16] is SNB-19 CNS.
In assay [17] the test system is SW-620 colon.
Assay [18] deals with U251 CNS.
For assay [19], the system named is SR leukemia.

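Assay format: 96-well plates, 48-hour exposure. The concentration for 50% growth inhibition is given as GI50. TGI marks complete inhibition of growth.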 Where only a bound is given, the exact number is not on record here.

In the case of `Cc1c2ccccc2c(C2C3C(=O)N(c4ccc(Br)cc4)C(=O)C3ON2C(C(N)=O)c2ccccc2)c2ccccc12` (centres undefined), the TGI in [1] was 9 µM; in assay [2], 34.1 µM; in [3] it was greater than 100 µM; in assay [4], 22.1 µM; in assay [5] it was 18.6 µM; in assay [6], 17.3 µM. Further, the TGI was 40.4 µM in [7]; greater than 100 µM in assay [8]; 41.4 µM in assay [9]; 48 µM in assay [10]; 26.9 µM in assay [11]; greater than 100 µM in assay [12]. For the same compound, the TGI in assay [13] was 12.9 µM; in assay [14] it was 36.1 µM; in assay [15] it was 24.4 µM; in assay [16] it was 22.6 µM; in assay [17], greater than 100 µM; in [18], 8.94 µM.

On to `O=C(C=P(c1ccccc1)(c1ccccc1)c1ccccc1)c1ccc(-c2cccs2)cc1`, for which the TGI came out at 12 µM in [1]; 13.4 µM in [2]; 4.7 µM in [3]; 15 µM in [4]; 19.6 µM in assay [5]; 19.8 µM in assay [6]. Moreover, the TGI worked out at 10.7 µM in [7]; 7.52 µM in assay [8]; 23.1 µM in assay [9]; 17.8 µM in assay [10]; 56.2 µM in assay [11]; 15.7 µM in assay [12]. Moreover, the TGI in assay [13] came out at 10.9 µM; in assay [14], 20.7 µM; in assay [15] it was 11.7 µM; in assay [16], 11.2 µM; in [17], 21.7 µM; in assay [18] it was 14.7 µM.

For the compound `C[C@H]1C[C@@H]2[C@H]([C@@H](O)C[C@@]3(C)[C@H]2CC[C@]3(O)C(=O)CO)[C@@]2(C)C=CC(=O)C=C12`, the TGI in [1], in assay [2], in assay [3], in assay [4], in assay [5] and in [6] was greater than 100 µM in each case. For the same compound, the TGI in assay [7], in [8], in assay [19], in assay [10], in [11] and in assay [14] was greater than 100 µM each time. Moreover, in assay [17], the TGI was greater than 100 µM.

Take `C=CCOC(=O)CC[C@H](NC(=O)[C@@H](CCC(F)(F)F)Cc1ccc(O)cc1)C(=O)OCC=C`: the TGI was 52.7 µM in [1]; 39.1 µM in [2]; 79.8 µM in assay [3]; greater than 100 µM in assay [4]; greater than 100 µM in [5]; greater than 100 µM in [6]. In addition, the TGI in assay [7], in assay [8], in [9], in assay [19], in assay [10] and in assay [11] was greater than 100 µM in each case. Also, the TGI in assay [13] was 76 µM; in [14], greater than 100 µM; in assay [15], 48.2 µM; in assay [16], greater than 100 µM; in assay [17] it was greater than 100 µM.

As to `COC1/C=C(C)/C=C/C(C)/C=C/C(=O)OC(/C(C)=C/C=C(\C)CNC(=O)[C@H](CO)NC=O)C(C)/C=C/C=C/C(OC)CC/C=C(C)/C=C/C1` (some centres undefined), the GI50 in assay [1] was 0.0362 µM. In addition, the TGI in [1] was greater than 1 µM; in [2] it was 0.385 µM; in assay [3] it was greater than 0.611 µM; in [4], greater than 1 µM; in assay [5], greater than 1 µM; in assay [6], greater than 1 µM. Also, the TGI in assay [7] is 0.0553 µM; in assay [8], greater than 1 µM; in assay [9], greater than 0.724 µM; in [10], greater than 1 µM; in assay [11], greater than 0.859 µM; in assay [12] it was greater than 0.352 µM. Besides, the TGI was 0.047 µM in [13]; 0.109 µM in assay [14]; greater than 1 µM in assay [15]; greater than 1 µM in assay [16]; greater than 1 µM in [17]; greater than 1 µM in assay [18].

Turning to `CNC(=O)OCc1nc(SC)n(C)c1CO`, the TGI was greater than 100 µM in assay [1]; 3.42 µM in [2]; greater than 100 µM in assay [3]; greater than 100 µM in [4]; greater than 100 µM in assay [5]; greater than 100 µM in [7]. In addition, the TGI in [8], in [9], in [10], in [11], in assay [14] and in assay [15] was greater than 100 µM each time. Also, the TGI in assay [16], in [17] and in assay [18] was greater than 100 µM each time.

For the compound `CCCCc1ccc(N=C(N)N)cc1`, the TGI was greater than 100 µM in assay [1]; greater than 100 µM in assay [2]; 36.6 µM in assay [4]; greater than 100 µM in [5]; greater than 100 µM in assay [6]; greater than 100 µM in [7]. In addition, the TGI in [8], in assay [9], in assay [10], in [11], in assay [12] and in assay [13] was greater than 100 µM each time. The TGI in assay [15] is 46.3 µM; in [16], greater than 100 µM; in assay [17], greater than 100 µM; in assay [18] it was greater than 100 µM.

With `C[C@@H]1C[C@H]2[C@@H]3CCC4=CC(=O)C=C[C@]4(C)[C@@]3(F)[C@@H](O)C[C@]2(C)[C@@]1(O)C(=O)CO`, the TGI in [1], in [2], in [3], in assay [4], in assay [5] and in [6] was greater than 100 µM in each case. Besides, the TGI in [7], in [8], in [19], in assay [10], in assay [11] and in assay [14] was greater than 100 µM throughout. Besides, in [17], the TGI is greater than 100 µM.

(Values after PubChem BioAssay (NCI).)
